US20150045387A1, “Bi-Aromatic And Tri-Aromatic Compounds As NADPH Oxidase 2 (Nox2) Inhibitors” (The University of Surrey, priority 2011, published 2015)

Experiments:
SVEC4-10 cells = experiment: normal cell proliferation, MTS assay, SVEC4-10; assay type: cell-based, mouse; details: SVEC4-10, LMH001 up to 10 μM, 24 h
Description: A) SVEC4-10 cells and HepG2 cells were cultured in the presence or absence of LHM001 (0-10 μM) for 24 h and tested for cell proliferation using a MTS assay kit. B) HL-60 cells were cultured in the presence or absence of LMH001 (0-10 μM), and cell proliferation was examined at 6, 12 and 24 h of culture.
(§1) The mouse lymph node microvascular endothelial cell line (SVEC4-10) was from the American Type Culture Collection (CRL-2167) and grown in DMEM, containing 10% (v/v) heat inactivated foetal calf serum, 100 U/mL penicillin and […] streptomycin, in a humidified atmosphere at 37° C. with 5% CO2.
(§2) The ex vivo proliferative capabilities of isolated BMSC or cultured cells were analyzed using the MTS proliferation assay. BMSC were suspended in Dulbecco's modified Eagle's medium supplemented with 5% fetal bovine serum (Sigma), 100 U/mL penicillin and 100 μg/mL streptomycin, and plated in 1% gelatin coated 96-well plates at a density of 1×10^5 cells/well in triplicate. After 24 hours in culture medium containing LMH001 (0-10 μM), proliferation was assessed using the MTS (CellTiter 96 AQ; Promega, Madison, USA) assay according to the manufacturer's protocol. The absorbance at 490 nm was read using an ELISA plate reader (Perkin elmer), and the proliferation index calculated relative to the controls. The mean of 3 blank readings was subtracted from each corrected value.

[1] = test system: mouse microvascular endothelial cells (SVEC4-10 cells); experiment: MTT assay for cytotoxicity, SVEC4-10; assay type: cell-based; details: SVEC4-10, LMH001 5 and 10 μM, 24 h
Description: FIG. 8 is a graph showing no cytotoxicity of LMH001 on living mouse microvascular endothelial cells (SVEC4-10 cells) and human liver hepatocyte cells (HepG2 cells), assessed by means of an MTT assay. Cells were cultured with LMH001 (5 and 10 μM) for 24 h. MTT is a yellow tetrazolium reagent which can be converted by living cells to insoluble blue formazan crystal in the medium. The insoluble blue formazan crystals were then dissolved in DMSO and measured for absorbance at 570 nm by a plate reader. Higher absorbance corresponds to more living cells. Results are presented as mean±SD (n=3).
as §1
The potential cytotoxicity of LMH001 on cultured endothelial cells (SVEC4-10) and liver cells (HepG2) was assessed using the MIT assay as described previously (16). […] Absorbance was measured at 570 nm in an ELISA plate reader and the mean of 3 blank readings was subtracted from each corrected value.

[2] = test system: bone marrow hematopoietic stem cells; experiment: in vivo test of LMH001 on bone marrow hematopoietic stem cell proliferation (MTS assay); details: 2.2 mg/kg/day intra-peritoneal for two weeks, compared to vehicle injected controls, n=8 mice/per group
Description: FIG. 3 is a graph showing the effect of LMH001 (2 week, IP injection) on bone marrow hematopoietic stem cell proliferation in mice. Wild-type mice (C57BL6/J) at 5 months of age were injected intra-peritoneal with LMH001 at 2.2 mg/kg/day for two weeks. Bone marrow hematopoietic stem cells were isolated and test for cell proliferation by a MTS assay kit (Promega).
On the day of experiment, primary hematopoietic bone marrow cells were obtained from wild-type male C57BL/6 mice as described previously (11). Briefly, 12-16 week old mice were sacrificed by cervical dislocation and their hind legs dissected and carefully cleaned from adherent tissues. Next, the ends of each bone were removed to expose the marrow and this was collected by flushing the femurs and tibias using a 25 gauge needle loaded with Dulbecco's PBS. […]
as §2, with “BMSC were suspended in Dulbecco's modified Eagle's medium supplemented with 5% fetal bovine serum (Sigma), 100 U/mL penicillin and 100 μg/mL streptomycin, and plated in 1% gelatin coated 96-well plates at a density of 1×10^5 cells/well in triplicate.” left out, “value. […]” for “value.”

[3] = test system: mouse microvascular endothelial cells (SVEC4-10); experiment: cell viability by trypan blue exclusion and viable cell number counting, SVEC4-10; assay type: cell-based; details: SVEC4-10, LMH001 5 and 10 μM, 24 h, trypan blue exclusion
Description: FIG. 7 is a graph showing no cytotoxicity of LMH001 on living mouse microvascular endothelial cells (SVEC4-10) and human liver hepatocyte cells (HepG2), assessed by trypan blue exclusion and viable cell number counting. Cells were cultured with LMH001 (5 and 10 μM) for 24 h. Cell viabilities of SVEC4-10 cells and HepG2 cells in the presence of LMH001 (5 and 10 μM) were expressed as % of alive cells compared to cells in the absence of LMH001 (control, 100%). Results are presented as mean±SD (n=3).
as §1
Cell viability and membrane integrity in the presence and absence of LMH001 were assessed using the trypan blue exclusion assay as described previously (15). Briefly, cells (1×10^6) were seeded onto 10 cm^2 culture dishes and allowed to adhere for 4 hours in 10% (v/v) FCS medium. […] At the time of experiment, cells were harvested by 0.25% Trypsin/EDTA, pelleted, resuspended in serum free medium and counted using a haemocytometer in the presence of trypan blue (0.4%) solution. The number of viable cells was calculated as a percentage of total cells.

[4] = test system: human lung alveolar epithelial cancer cells (A549 cells); experiment: EGF-induced cell proliferation of A549 cells (cell counting); assay type: cell-based; details: LMH001 5 μM, 24 h
Description: A549 cells were seeded at equal number the day before experiments and then stimulated with or without […] (EGF, 10 ng/ml) for 24 h in the presence or absence of LMH001 (5 μM). Cells were then trypsinized and counted. Cell homogenates were used for measuring O2.^− production by lucigenin-chemiluminescence in the presence of NADPH (100 μM).
A549 is a human lung adenocarcinoma epithelial cell line. A549 cells were grown in DMEM, containing 10% (v/v) heat inactivated foetal calf serum, 100 U/mL penicillin and […] streptomycin, in a humidified atmosphere at 37° C. with 5% CO2.

O=C(OCc1cccc(O)c1O)c1ccc(O)c(CO)c1 [LMH001, (2,3,-dihydroxyphenyl)methyl 4-hydroxy-3-(hydroxymethyl)benzoate]
normal cell proliferation under physiological condition (SVEC4-10 cells): no significant effect
cytotoxicity, MTT absorbance at 570 nm [1]: no significant difference
toxic effect on bone marrow hematopoietic stem cell proliferation [2]: no toxic effect
cell viability (% of alive cells vs control) [3]: no significant difference
EGF-induced A549 cell proliferation ([4]; EGF 10 ng/ml, cells counted): inhibited completely
A549 cell proliferation, LMH001 alone ([4]; no EGF, compared to medium only): no significant effect
